From BindingDB's records for doi:10.7270/Q2251GJ9 (The Scripps Research Institute Molecular Screening Center, 2007)

Molecular target: Sphingosine 1-phosphate receptor 1 (Homo sapiens, UniProt P21453)
Assay: S1P1 receptor agonists, dose response, cell-based, agonist mode, 60K MLSMR set (AID 468)
[1] = inactive by the depositor's call

Sequence of Sphingosine 1-phosphate receptor 1 (P21453 whole entry): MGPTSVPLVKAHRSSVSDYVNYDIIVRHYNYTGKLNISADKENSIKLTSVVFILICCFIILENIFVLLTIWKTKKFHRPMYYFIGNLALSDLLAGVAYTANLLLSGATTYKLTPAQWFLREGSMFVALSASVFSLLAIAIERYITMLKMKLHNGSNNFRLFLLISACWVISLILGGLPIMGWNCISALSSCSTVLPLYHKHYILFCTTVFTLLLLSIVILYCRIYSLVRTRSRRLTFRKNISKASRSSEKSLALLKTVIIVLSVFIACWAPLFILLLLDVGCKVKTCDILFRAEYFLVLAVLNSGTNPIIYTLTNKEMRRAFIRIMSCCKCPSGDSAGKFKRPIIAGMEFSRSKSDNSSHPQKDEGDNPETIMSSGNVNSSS

SMILES	EC50 [µM]	EC50 [1] [µM]
Cc1nn(C(=O)c2cccs2)c(N)c1-c1ccccc1 [(5-amino-3-methyl-4-phenyl-1-pyrazolyl)-thiophen-2-ylmethanone]	7.24	–
Cc1ccc(C(=O)c2cncc(Br)c2)cc1 [(5-bromanylpyridin-3-yl)-(4-methylphenyl)methanone]	9.76	–
O=C(c1cc(-c2ccccc2)on1)N1CCN(Cc2ccc3c(c2)OCO3)CC1 [(5-phenylisoxazol-3-yl)-(4-piperonylpiperazino)methanone]	> 30	–
CCC(NCc1ccc2c(c1)OCO2)=C1C(=O)NC(=O)N(C2CCCCC2)C1=O [(5E)-5-[1-(1,3-benzodioxol-5-ylmethylamino)propylidene]-1-cyclohexyl-1,3-diazinane-2,4,6-trione]	6.81	–
CCc1c(C)nc2ncnn2c1NCCc1ccc(OC)cc1 [(6-Ethyl-5-methyl-[1,2,4]triazolo[1,5-a]pyrimidin-7-yl)-[2-(4-methoxy-phenyl)-ethyl]-amine]	8.3	–
Brc1ccc2ncnc(Nc3ccc(N4CCOCC4)cc3)c2c1 [(6-bromoquinazolin-4-yl)-(4-morpholinophenyl)amine]	7.6	–
Cn1cccc1C(=O)OCc1cc(Cl)cc2c1OCOC2 [(6-chloranyl-4H-1,3-benzodioxin-8-yl)methyl 1-methylpyrrole-2-carboxylate]	–	15.6
CCc1ccc2oc(-c3cc(N)cc(C)c3O)nc2c1 [(6E)-4-amino-6-(5-ethyl-3H-1,3-benzoxazol-2-ylidene)-2-methyl-1-cyclohexa-2,4-dienone]	11.4	–
CC(C)c1ccc2oc(-c3cc(N)ccc3O)nc2c1 [(6E)-4-amino-6-(5-isopropyl-3H-1,3-benzoxazol-2-ylidene)cyclohexa-2,4-dien-1-one]	9.37	–
C=C(C)COc1ccc(-c2nc(N)nc(C)c2Oc2ccccc2OC)c(O)c1 [(6E)-6-[2-amino-5-(2-methoxyphenoxy)-6-methyl-1H-pyrimidin-4-ylidene]-3-(2-methylallyloxy)cyclohexa-2,4-dien-1-one]	3.8	–
COc1ccc(-c2n[nH]cc2-c2ccc3c(c2)OCCO3)c(O)c1 [(6E)-6-[4-(2,3-dihydro-1,4-benzodioxin-6-yl)-1,2-dihydropyrazol-3-ylidene]-3-methoxycyclohexa-2,4-dien-1-one]	0.986	–
CCc1ccc2c(COC(=O)c3n[nH]c4ccccc34)cc(=O)oc2c1 [(7-ethyl-2-oxochromen-4-yl)methyl 1H-indazole-3-carboxylate]	–	10.6
CCOC(=O)CN(C(=O)CSc1nnc(-c2cccc(OC)c2)o1)c1ccc(F)cc1 [((4-Fluoro-phenyl)-{2-[5-(3-methoxy-phenyl)-[1,3,4]oxadiazol-2-ylsulfanyl]-acetyl}-amino)-acetic acid ethyl ester]	3.17	–
Cc1noc(/C=C/N(C)C)c1S(=O)(=O)N1CCc2ccccc21 [(E)-2-[4-(2,3-dihydroindol-1-ylsulfonyl)-3-methyl-1,2-oxazol-5-yl]-N,N-dimethyl-ethenamine]	–	95
CC(=N)C(C#N)C(=O)CSc1nc2cc(Cl)ccc2s1 (centres undefined) [(E)-3-amino-2-[2-[(5-chloro-1,3-benzothiazol-2-yl)sulfanyl]acetyl]but-2-enenitrile]	15.6	–
CC(=N)C(C#N)C(=O)CSc1nnc(SCc2ccc(Cl)cc2)s1 (centres undefined) [(E)-3-amino-2-[2-[[5-[(4-chlorobenzyl)thio]-1,3,4-thiadiazol-2-yl]thio]acetyl]but-2-enenitrile]	8.95	–
Cc1noc(/C=C/N(C)C)c1S(=O)(=O)N1CCN(c2ccccc2)CC1 [(E)-N,N-dimethyl-2-[3-methyl-4-(4-phenylpiperazin-1-yl)sulfonyl-1,2-oxazol-5-yl]ethenamine]	> 95	–
O=S(=O)(C/C(=C/CO)S(=O)(=O)c1ccccc1)c1ccccc1 [(Z)-3,4-bis(benzenesulfonyl)but-2-en-1-ol]	> 3	–
CC1=C(/C=C/C(C)=C/C=C/C(C)=C/C(=O)O)C(C)(C)CCC1 [ALL-TRANS-RETINOIC ACID]	–	25.4
CC(=O)Nc1cc(OC(C)=O)c2nonc2c1OC(C)=O [Acetic acid 7-acetoxy-5-acetylamino-benzo[1,2,5]oxadiazol-4-yl ester]	7.53	–
CCN(C(=O)C1CCCCC1)c1nnc(-c2cccnc2)s1 [Cyclohexanecarboxylic acid ethyl-(5-pyridin-3-yl-[1,3,4]thiadiazol-2-yl)-amide]	2.13	–
CC1Cc2cc(-c3csc(NC(=O)Cc4cccs4)n3)ccc2N1S(C)(=O)=O (centres undefined) [MLS000027766]	–	11.8
COCCN(C(=O)c1ccccc1)c1nnc(-c2cccnc2)s1 [MLS000032523]	6.68	–
O=C(CCC(=O)N(Cc1ccco1)C(C(=O)NC1CCCC1)c1ccncc1)Nc1cccnc1 (centres undefined) [MLS000033292]	> 95	–
CC(C)(C)NC(=O)CSc1ncnc2c1nnn2Cc1ccccc1Cl [MLS000034488]	9.4	–

SMILES	EC50 [µM]	EC50 [1] [µM]
Cc1ccccc1OCC(=O)Nc1ccc(N2CCN(C(=O)C(C)C)CC2)c(Cl)c1 [MLS000034491]	–	16.8
CCOC(=O)Nc1ccc2c(c1)N(C(=O)CCN(C)C)c1ccccc1S2 [MLS000038082]	33.9	–
CC(=O)c1sc(NC(=O)C2(F)C(F)(F)C(F)(F)C(F)(F)C(F)(F)C2(F)F)nc1C [MLS000040071]	–	30.4
CC(C)[C@H](NC(=O)OC(C)(C)C)c1nnc(SCC(=O)Nc2ccc(Br)cc2)o1 [MLS000040800]	–	14.7
Cc1ccc2[nH]c3c(NCc4ccco4)ncnc3c2c1 [MLS000040855]	9.9	–
CC(C)OCCCNc1ncnc2c1[nH]c1ccccc12 [MLS000041327]	–	14
CCCCOc1ncnc2c1[nH]c1ccccc12 [MLS000041483]	4.18	–
COc1ccc(CCNc2ncnc3c2oc2ccccc23)cc1OC [MLS000041708]	0.537	–
CCCC(=O)Nc1ccc2oc(-c3ccc(OC)c(Br)c3)nc2c1 [MLS000042482]	4.96	–
CCOc1ccccc1OCCCCCc1c(C)n[nH]c1C [MLS000043342]	1.56	–
Cc1cc(C(=O)Nc2sc(C)c(-c3ccc(F)cc3)c2C(N)=O)no1 [MLS000043467]	6.79	–
Cn1nc(CC(=O)Nc2ccc3c(c2)OCCO3)c2ccccc2c1=O [MLS000047020]	5.94	–
O=C(Nc1ccc(-c2noc(CCc3ccccc3)n2)cc1)c1cccnc1 [MLS000047253]	3.6	–
COc1cccc(-c2nc(-c3ccc(NC(=O)c4cccnc4)cc3)no2)c1 [MLS000047254]	–	26.1
COc1ccc(-n2nc3ccc(NS(C)(=O)=O)cc3n2)cc1Cl [MLS000049114]	0.148	–
CC(=O)Nc1ccc(S(=O)(=O)N2CCN(CCCOc3cc(C)ccc3C)CC2)cc1 [MLS000050317]	–	15.2
N#C/C(=C/c1ccc(N2CCCCCC2)o1)c1ccc(F)cc1 [MLS000051438]	–	22.4
O=S(=O)(Nc1ccc2c(c1)OCCO2)c1ccc2oc3ccccc3c2c1 [MLS000051884]	7.68	–
CCN=c1scc(-c2ccc3c(c2)NC(=O)CO3)n1N=C1CCCC1 [MLS000054638]	8.6	–
CCOC(=O)c1c(C)[nH]c(C(=O)C(C)OC(=O)c2cccc(OCc3c(C)noc3C)c2)c1C (centres undefined) [MLS000054923]	4.37	–
COc1cc(C(=O)N2CCN(S(=O)(=O)c3ccc(C)cc3)CC2)ccc1OCc1c(C)noc1C [MLS000056221]	> 95	–
CN(Cc1cccs1)c1ncnc2sccc12 [MLS000056228]	–	13
CC(=O)Nc1ccccc1OCC(=O)c1cc(C)n(Cc2cccs2)c1C [MLS000056239]	0.202	–
CCCn1c(NC(=O)c2cccc(S(=O)(=O)N3CCCC3)c2)nc2ccccc21 [MLS000057540]	8.82	–
c1ccc2c(c1)oc1c(NCc3ccc4c(c3)OCO4)ncnc12 [MLS000057790]	5.6	–

SMILES	EC50 [µM]	EC50 [1] [µM]
Cc1csc(NC(=O)c2nc(-c3ccccc3)n(-c3ccccc3)n2)n1 [MLS000058347]	–	10.1
CCCC(=O)Nc1ccc(-c2nc3cc(C)ccc3o2)cc1 [MLS000061826]	5.96	–
O=C(Nc1ccc(N2CCOCC2)c(Cl)c1)c1cccc(F)c1 [MLS000066209]	1.23	–
Cc1ccc2oc(-c3ccc(NC(=O)c4cccnc4)cc3)nc2c1 [MLS000068975]	3.05	–
COc1cccc(-c2csc(N3CCN(CC(=O)Nc4ccc5c(c4)OCO5)CC3)n2)c1 [MLS000070935]	–	17
CCN(C(=O)c1ccc(C(C)(C)C)cc1)c1nnc(Cn2nnc3ccccc32)s1 [MLS000072751]	1.49	–
O=C(Nc1nc(-c2ccc3c(c2)OCO3)cs1)c1ccncc1 [MLS000073104]	9.54	–
Cc1ccc2c(c1)N(CC(=O)Nc1ccc3c(c1)OCCO3)C(=O)CO2 [MLS000074457]	> 95	–
CCCN(C(=O)c1cccs1)c1nnc(-c2ccncc2)s1 [MLS000074637]	3.38	–
Cc1ccnc(SCC(=O)Nc2sc3c(c2C#N)CCCC3)n1 [MLS000077260]	4.76	–
c1ccc(CN2CCN(c3ncnc4c3[nH]c3ccccc34)CC2)cc1 [MLS000078384]	4.18	–
Fc1ccc2[nH]c3c(N4CCSCC4)ncnc3c2c1 [MLS000078401]	6.12	–
O=C(c1ccco1)N1CCN(c2ncnc3c2[nH]c2ccc(Br)cc23)CC1 [MLS000078404]	–	13.9
NC(=Nc1nc2c(c(=O)[nH]1)CCCC2)Nc1ccccc1 [MLS000078734]	7.23	–
CCN(CC)C(=O)Oc1ccc2c(=O)c(-c3ccc(OC)cc3)coc2c1 [MLS000083046]	–	12.9
COc1ccc(-c2cc(C(=O)NC3CCCC3)no2)cc1OC [MLS000087117]	–	15.8
COc1ccc(OC)c(-c2cc(C(=O)Nc3c(C)nn(Cc4ccc(Cl)cc4)c3C)no2)c1 [MLS000087191]	–	20.8
CCc1ccc(NC(=O)c2cc(-c3ccco3)on2)cc1 [MLS000087211]	6.93	–
Cc1ccc(NC(=O)c2cc(-c3ccco3)on2)cc1C [MLS000087214]	4.99	–
CCc1c(C)sc(NC(=O)c2cc(-c3ccco3)on2)c1C#N [MLS000087225]	4.14	–
Cc1nn(Cc2ccc(Cl)c(Cl)c2)c(C)c1NC(=O)c1cc(-c2ccco2)on1 [MLS000087229]	5.63	–
Cc1nn(Cc2ccc(Cl)cc2)c(C)c1NC(=O)c1cc(-c2ccco2)on1 [MLS000087233]	–	13.8
COc1ccc(NC(=O)c2cc(-c3cccs3)on2)cc1OC [MLS000087261]	5.79	–
COc1ccc2c(c1)CCc1c(C(=O)NC3CCCCC3)noc1-2 [MLS000087437]	–	95
